This is an account of results in paper PMC3282623, “High-pressure-induced water penetration into 3-isopropylmalate dehydrogenase” (Acta Crystallographica Section D: Biological Crystallography, 2012).

Each structure is given as a SMILES string.

For this test, the target named is T1, SoIPMDH (3-isopropylmalate dehydrogenase from Shewanella oneidensis MR-1) (Shewanella oneidensis, UniProt Q8E9N3).
T1 construct: gene leuB; N-terminally His6-tagged (pQE-80L, BamHI/HindIII), expressed in E. coli BL21-CodonPlus(DE3)-RIL; tag removal not mentioned; homodimer
T1 sequence (Q8E9N3 2-364): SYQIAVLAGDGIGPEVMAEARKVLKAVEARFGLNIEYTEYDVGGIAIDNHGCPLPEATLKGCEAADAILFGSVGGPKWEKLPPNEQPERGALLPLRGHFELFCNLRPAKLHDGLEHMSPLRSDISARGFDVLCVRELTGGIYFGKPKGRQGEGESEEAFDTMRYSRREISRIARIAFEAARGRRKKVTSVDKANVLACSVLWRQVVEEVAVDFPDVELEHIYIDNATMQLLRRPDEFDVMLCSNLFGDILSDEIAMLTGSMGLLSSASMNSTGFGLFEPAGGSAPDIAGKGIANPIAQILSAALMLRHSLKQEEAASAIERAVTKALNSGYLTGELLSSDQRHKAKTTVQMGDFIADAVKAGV
Nature of the test: X-ray crystallography of the complex. Type of test: binding. The note with it: active site, closed dimer; calcium in active site; 10 mM IPM, 10 mM MgCl2, 200 mM calcium acetate, pH 7.0, room temperature, 0.1 MPa (also 160-650 MPa: 3vl2, 3vl3, 3vl4, 3vl6, 3vl7).

On to `CC(C)[C@H](C(=O)O)[C@@H](O)C(=O)O` [3-isopropylmalate], for which the “X-ray crystallography of the complex” value is “the SoIPMDH dimer was crystallized in complex with its substrate, the IPM molecule”.
